Measurements: patent US7160901B2, “Substituted indolinones, preparation thereof and their use as pharmaceutical compositions” (Boehringer Ingelheim Pharma GmbH & Co. KG, priority 2000, dated 2007)
pIC50: −log10 of the molar value.

These compounds were tested on Leiomyosarcoma tumour cell line SK-UT-1B (assay: Test 1: inhibition of the proliferation of cultivated human tumour cells (14C-thymidine incorporation), SK-UT-1B). Conditions: Homo sapiens, Skut1B; in vitro Test 1; SK-UT-1B cells; 48 hours' incubation, then 14C-thymidine for a further 24 hours; IC50 of inhibition of incorporated 14C-thymidine; read-out: Inhibition of SKUT-1B proliferation.
Type: cell-based
Source text: Inhibition of the Proliferation of Cultivated Human Tumour Cells
Cells of the Leiomyosarcoma tumour cell line SK-UT-1B or non-small-cell lung tumour cell line NCI-H460 (obtained from the American Type Culture Collection (ATCC)) were cultivated in Minimum Essential Medium with non-essential amino acids (Gibco), supplemented with sodium pyruvate (1 mMol), glutamine (2 mMol) and 10% foetal calf serum (Gibco) or RPMI1640 Medium (Gibco) and 10% foetal calf serum (Gibco) and harvested in the logarithmic growth phase. Then the SK-UT-1B cells were placed in Cytostar® multi-well plates (Amersham) at a density of 4000 cells per well or 3000 cells per well for NCI-H460 cells and incubated overnight in an incubator. Various concentrations of the compounds (dissolved in DMSO; final concentration: 0.1%) were added to the cells. After 48 hours' incubation, ^14C-thymidine (Amersham) was added to each well and incubation was continued for a further 24 hours. The quantity of ^14C-thymidine which was incorporated into the tumour cells in the presence of the inhibitor and which represents the number of cells in the S phase was measured in a Wallace 1450 Microbeta Liquid Scintillation Counter. IC50 values for the inhibition of the proliferation (=inhibition of incorporated ^14C-thymidine) were calculated, correcting for the background radiation. All the measurements were done twice.
The following Table contains the results obtained with the in vitro Test 1 (++ denotes <0.01 μM, + denotes 0.01–1.0 μM): […]

| Compound | pIC50 |
| --- | --- |
| CC1CCCC(C)N1Cc1ccc(N/C(=C2\C(=O)Nc3ccc(NS(=O)(=O)c4cccc([N+](=O)[O-])c4)cc32)c2ccccc2)cc1 (stereo not drawn) [Example 66, (Z)-3-{1-[4-((2,6-dimethylpiperidino)-methyl)-phenylamino]-1-phenyl-methylidene}-5-(3-nitrophenylsulphonylamino)-2-indolinone] | > 8.00 |
| CCS(=O)(=O)Nc1ccc2c(c1)/C(=C(/Nc1ccc(CN(C)C)cc1)c1ccccc1)C(=O)N2 [Example 70, (Z)-3-{1-[4-dimethylaminomethyl-phenylamino]-1-phenyl-methylidene}-5-ethylsulphonylamino-2-indolinone] | 6.00 to 8.00 |
| CCS(=O)(=O)Nc1ccc2c(c1)/C(=C(/Nc1ccc(CN(C)Cc3ccccc3)cc1)c1ccccc1)C(=O)N2 [Example 71, (Z)-3-{1-[4-(N-benzyl-N-methyl-aminomethyl)-phenylamino]-1-phenyl-methylidene}-5-ethylsulphonylamino-2-indolinone] | 6.00 to 8.00 |
| CCS(=O)(=O)Nc1ccc2c(c1)/C(=C(/Nc1ccc(CCN(C)C)cc1)c1ccccc1)C(=O)N2 [Example 72, (Z)-3-{1-[4-(2-dimethylamino-ethyl)-phenylamino]-1-phenyl-methylidene}-5-ethylsulphonylamino-2-indolinone] | 6.00 to 8.00 |
| O=C1Nc2ccc(NS(=O)(=O)c3cccnc3)cc2/C1=C(/Nc1ccc(CN2CCCC2)cc1)c1ccccc1 [Example 80, (Z)-3-{1-[4-(pyrrolidin-1-ylmethyl)-phenylamino]-1-phenyl-methylidene}-5-(pyridin-3-ylsulphonylamino)-2-indolinone] | > 8.00 |
| O=C1Nc2ccc(NS(=O)(=O)c3cccnc3)cc2/C1=C(/Nc1ccc(C(=O)N2CCCC2)cc1)c1ccccc1 [Example 88, (Z)-3-{1-[4-(pyrrolidin-1-ylcarbonyl)-phenylamino]-1-phenyl-methylidene}-5-(pyridin-3-ylsulphonylamino)-2-indolinone] | 6.00 to 8.00 |
| CCS(=O)(=O)Nc1ccc2c(c1)/C(=C(/Nc1ccc(CN3CCCCC3)cc1)c1ccccc1)C(=O)N2 [Example 99, (Z)-3-{1-[4-(piperidinomethyl)-phenylamino]-1-phenyl-methylidene}-5-ethylsulphonylamino-2-indolinone] | > 8.00 |
| CC(C)S(=O)(=O)Nc1ccc2c(c1)/C(=C(/Nc1ccc(CN3CCCCC3)cc1)c1ccccc1)C(=O)N2 [Example 101, (Z)-3-{1-[4-(piperidinomethyl)-phenylamino]-1-phenyl-methylidene}-5-isopropylsulphonylamino-2-indolinone] | > 8.00 |
| O=C1Nc2ccc(NS(=O)(=O)c3cccc4ccccc34)cc2/C1=C(/Nc1ccc(CN2CCCCC2)cc1)c1ccccc1 [Example 104, (Z)-3-{1-[4-(piperidinomethyl)-phenylamino]-1-phenyl-methylidene}-5-(naphthalin-1-ylsulphonylamino)-2-indolinone] | > 8.00 |
| O=C1Nc2ccc(NS(=O)(=O)c3cccc([N+](=O)[O-])c3)cc2/C1=C(/Nc1ccc(CN2CCCCC2)cc1)c1ccccc1 [Example 112, (Z)-3-{1-[4-(piperidinomethyl)-phenylamino]-1-phenyl-methylidene}-5-(3-nitrophenylsulphonylamino)-2-indolinone] | > 8.00 |
| Cc1noc(C)c1S(=O)(=O)Nc1ccc2c(c1)/C(=C(/Nc1ccc(CN3CCCCC3)cc1)c1ccccc1)C(=O)N2 [Example 117, (Z)-3-{1-[4-(piperidinomethyl)-phenylamino]-1-phenyl-methylidene}-5-(3,5-dimethylisoxazol-4-ylsulphonylamino)-2-indolinone] | 6.00 to 8.00 |
| O=C1Nc2ccc(NS(=O)(=O)C3CC3)cc2/C1=C(/Nc1ccc(CN2CCCCC2)cc1)c1ccccc1 [Example 120, (Z)-3-{1-[4-(piperidinomethyl)-phenylamino]-1-phenyl-methylidene}-5-cyclopropylsulphonylamino-2-indolinone] | > 8.00 |
